The target of data set [1] is T1, chimeric protein PPARγ-Gal4 (Homo sapiens, UniProt P37231).
T1 construct: Gal4 (fusion partner); expressed in transfected cells; host or cells: CV-1 cells (monkey kidney cells)
T1 sequence (P37231 238-503 limits assumed): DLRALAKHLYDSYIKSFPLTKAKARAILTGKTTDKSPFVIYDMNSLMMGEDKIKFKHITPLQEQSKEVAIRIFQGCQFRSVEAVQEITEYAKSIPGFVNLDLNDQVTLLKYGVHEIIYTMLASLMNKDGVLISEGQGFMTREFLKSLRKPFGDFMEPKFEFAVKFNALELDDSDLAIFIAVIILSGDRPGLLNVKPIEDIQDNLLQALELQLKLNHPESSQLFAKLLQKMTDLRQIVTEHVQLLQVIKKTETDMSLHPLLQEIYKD
The experiment in a line: PPAR activation, Gal4 chimera luciferase reporter in co-transfected CV-1 cells. The format is cell-based. Conditions: 50 μM, 18 hours contact, relative to control cells without product. As for the experimental part: (§1) The measurement of the PPAR activation was performed according to a technique described by Lehmann et al. (1995, J. Biol. Chem. 270: 12953-12956).
(§2) CV-1 cells (monkey kidney cells) are co-transfected with an expression vector for the chimeric proteins PPARα-Gal4 or PPARγ-Gal4 and with a “reporter” plasmid that allows the expression of the luciferase gene placed under the control of a promoter containing Gal4 response elements.
(§3) The cells are plated into 96-well microplates and co-transfected using a commercial reagent with the reporter plasmid (pG5-tk-pGL3) and the expression vector for the chimeric protein (PPARα-Gal4 or PPARγ-Gal4). After incubating for 4 hours, whole culture medium (comprising 10% foetal calf serum) is added to the wells. After 24 hours, the medium is removed and replaced with whole medium comprising the test products (50 μM final). The products are left in contact with the cells for 18 hours. The cells are then lysed and the luciferase activity is measured using a luminometer. A PPAR activation factor can then be calculated by means of the activation of the expression of the reporter gene induced by the product (relative to the control cells that have not received any product).
For orientation: A reporter such as luciferase makes a cellular process visible.

In data set [2] the target is T2, chimeric protein PPARα-Gal4 (Homo sapiens, UniProt Q07869).
T2 construct: Gal4 (fusion partner); expressed in transfected cells; host or cells: CV-1 cells (monkey kidney cells)
T2 sequence (Q07869 239-466 limits assumed): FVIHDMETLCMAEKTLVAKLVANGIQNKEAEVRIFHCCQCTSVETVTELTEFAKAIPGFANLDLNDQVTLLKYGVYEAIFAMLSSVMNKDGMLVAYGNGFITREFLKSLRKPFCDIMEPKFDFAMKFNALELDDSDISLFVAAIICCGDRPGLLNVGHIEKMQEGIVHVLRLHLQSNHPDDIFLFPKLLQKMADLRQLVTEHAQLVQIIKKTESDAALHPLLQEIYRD
The data set is described as above. Type of data set: cell-based. Conditions: 50 μM, 18 hours contact, relative to control cells without product. As for the experimental part: as §1, §2, §3

Data set [3] concerns vector expressing Gal4 alone. Nature of the data set: Luciferase reporter control without the PPAR ligand binding domain in CV-1 cells. Type of data set: cell-based. As for the experimental part: as §2
as §3, with “The products are left in contact with the cells for 18 hours.” left out
By way of example, the compound of Example 1, at a concentration of 50 μM, activates the chimeric protein PPARα-Gal4 by factor of 18, and the chimeric protein PPARγ-Gal4 by a factor of 39. In the absence of the binding domain for the PPAR α or γ ligand (vector expressing Gal4 alone), the luciferase activity measured in the presence of this product is zero.

Consider `CCCCCCc1cc2c(cc1NCC(=O)O)C(=O)CC2` [Example 38, (6-Hexyl-3-oxoindan-5-ylamino)acetic acid], for which the melting point (usually the temperature of the solid-liquid transition) stood at 144 °C.

`CCCCCCc1cc2c(cc1OCCCC(=O)O)C(=NO)CC2` [Example 24, 4-(6-hexyl-3-(hydroxyimino)-5-indanyloxy]butyric acid] gave a melting point of 148 °C.

As to `CCCCCCc1cc2c(cc1OCCCC(=O)O)C(=O)CC2` [Example 1, 4-(6-hexyl-3-oxoindan-5-yloxy)butyric acid], in data set [1], the “PPAR activation factor (activation of the chimeric protein PPARγ-Gal4)” value was 39. In addition, the “PPAR activation factor (activation of the chimeric protein PPARα-Gal4)” value in data set [2] was 18. Also, the “luciferase activity in the absence of the binding domain for the PPAR α or γ ligand” value in data set [3] is on record as “zero”.

Consider `CCCCCCc1cc2c(cc1SCCCC(=O)O)C(=O)CC2` [Example 42, 4-(6-hexyl-3-oxoindan-5-ylsulfanyl)butyric acid], for which the melting point was 100 °C.

Compound `CCCCCCc1cc2c(cc1NCC(=O)O)C(=O)CC2` [Example 36, (6-Hexyl-3-oxoindan-5-ylamino)acetic acid] gave a melting point of 110 °C.
